Data reported in US20150290232A1, “DRUG COMPOSITION FOR TREATING TUMORS AND APPLICATION THEREOF” (priority 2012, published 2015).
Like-named read-outs stand apart in the source and are kept apart here.

Legend:
[1] = tested on: leukemic cell lines L1210 and P388; conditions: mice inoculated with L1210 and P388, 0.5-5 mg/kg/day for 10 consecutive days; cited from earlier work
[2] = tested on: leukemia mice; conditions: cited from earlier work
[3] = Example 5: body weight of tumor-bearing nude mice; format: in vivo, BALB/c-nu nude mice
Procedure: Under sterile conditions, the above tumor cells were collected in the logarithmic growth phase. A549 was injected by subcutaneous injection in an amount of 6×10 6/0.2 mL/nude mice (cell viability>90%) into the right subaxillary of the nude mice, thus establishing transplated tumor models of lung cancer in nude mice. The mice were administered from the second day after the inoculation. […] Each mouse was intragastrically administered in 0.4 ml each time and 2 times a day, at 8:00, and 14:00. The administrations were successive for 14 days. The day before administration was deemed as Day 0 and the body weight and tumor size of the mice were determined every 5 days to produce a dynamic plot on body weight and tumor growth. On Day 20, the mice were sacrificed and the tumors were taken out and weighed. The tumor inhibition rate (%) was calculated after the effect of the medicament based on a tumor inhibition rate of the control group being zero.
(§1) The values determined were presented as mean±standard error (Mean±SD). The experimental data for each group was analyzed with One-way ANOVA method in the SPSS 18.0 statistical software, and p<0.05 means that the differences are statistically significant.

[4] = tested on: acute lymphoblastic leukemia (ANLL); conditions: initial treatment of ANLL; cited from earlier work
[5] = rats, cited from earlier work
[6] = tested on: RPMI 8226 (multiple myeloma); test: MTT cell viability, lymphoma and myeloma cells; format: cell-based; conditions: Homo sapiens; for IC50: read-out: concentration (IC50 value of 72 hours)
Procedure: (§2) Well-growing cells of above were obtained and inoculated into wells of a 96-well cell culture plate at 5000 cells/well. Separate compounds of various concentrations were added, mixed uniformly, and incubated (5% CO2) at 37° C. for 72 hours. Then the cell viability was determined by the MTT method.
(§3) b) Determine the inhibitory effects of TTD in combination with Ada A on the above cells. The pretreatment of the cells was the same as in a). The control group was not treated with the compound while administered. […] As to the combination group, two compounds were added together into the same group of wells, with the fmal concentrations being the concentrations to which the IC50 values of the two single drugs correspond. After 72 hours of incubation, the MTT method was used for the determination of cell viability. The cell viability of the control group was set to 100% in this experiment, and the TTD, Ada A single drug and combined effects on cell viability (%) were calculated.

[7] = tested on: Raji (human Burkitt lymphoma cells); test: MTT cell viability, lymphoma and myeloma cells; format: cell-based; conditions: 72 h; for IC50: read-out: concentration (IC50 value of 72 hours)
Procedure: as §2, §3

[8] = tested on: mouse leukemia P388 and human gastric cancer cell line SGC-7901; conditions: 0.01 μg/ml, in vitro; cited from earlier work
[9] = tested on: A549 transplanted tumor (human non-small cell lung cancer cell line); test: Example 5: Acla A on A549 transplanted tumor in nude mice; format: in vivo, BALB/c-nu nude mice
Procedure: Under sterile conditions, the above tumor cells were collected in the logarithmic growth phase. A549 was injected by subcutaneous injection in an amount of 6×10 6/0.2 mL/nude mice (cell viability>90%) into the right subaxillary of the nude mice, thus establishing transplated tumor models of lung cancer in nude mice. The mice were administered from the second day after the inoculation. The experimental group was intragastrically administered at the experimentally designed amount, the negative control group was intragastrically administered with sterile water, and the positive control group is intragastrically administered with Jef. Each mouse was intragastrically administered in 0.4 ml each time and 2 times a day, at 8:00, and 14:00. The administrations were successive for 14 days. The day before administration was deemed as Day 0 and the body weight and tumor size of the mice were determined every 5 days to produce a dynamic plot on body weight and tumor growth. On Day 20, the mice were sacrificed and the tumors were taken out and weighed. The tumor inhibition rate (%) was calculated after the effect of the medicament based on a tumor inhibition rate of the control group being zero.
as §1

[10] = tested on: A549 transplanted tumor (human non-small cell lung cancer cell line); test: Example 4: TTD on A549 transplanted tumor in nude mice; format: in vivo, BALB/c-nu nude mice; conditions: A549, TTD 50 mg/kg/time intragastric, 3 times a day, 10 days, Day 24; for tumor inhibition rate: control = 0
Procedure: (§4) Under sterile conditions, the above tumor cells were collected in the logarithmic growth phase. A549 was injected by subcutaneous injection in an amount of 1×10 7/0 2 mL/nude mice (cell viability>90%) into the right subaxillary of the nude mice, and Hep G2 was injected by subcutaneous injection in an amount of 1×10^7/0.2 mL/nude mice (cell viability>90%) into the left subaxillary of the nude mice thus establishing transplated tumor models of lung cancer and liver cancer respectively in nude mice. The administration was carried out from the second day after the inoculation. The experimental group was intragastrically administered at the experimentally designed amount, the negative control group is intragastrically administered with sterile water, and the positive control group was intragastrically administered with Jef. Each mouse was intragastrically administered in 0.4 ml each time and 3 times a day, at 8:00, 14:00 and 20:00. The administrations were successive for 10 days. The day before administration was deemed as Day 0 and the body weight and tumor size of the mice were determined every 5 days to produce a dynamic plot on body weight and tumor growth. On Day 24, the mice were sacrificed and the tumors were taken out and weighed. The tumor inhibition rate (%) was calculated after the effect of the medicament based on a tumor inhibition rate of the control group being zero.
as §1

[11] = tested on: Hep G2 transplanted tumor (human hepatoma carcinoma cell); test: Example 4: TTD on Hep G2 transplanted tumor in nude mice; format: in vivo, BALB/c-nu nude mice; conditions: Hep G2, TTD 50 mg/kg/time intragastric, 3 times a day, 10 days, Day 24
Procedure: as §4, with “The experimental group was intragastrically administered at the experimentally designed amount, the negative control group is intragastrically administered with sterile water, and the positive control group was intragastrically administered with Jef. Each mouse was intragastrically administered in 0.4 ml each time and 3 times a day, at 8:00, 14:00 and 20:00. The administrations were successive for 10 days.” left out, “On Day 24, the mice were sacrificed and the tumors were taken out and weighed.” left out
as §1

[12] = Example 4: body weight of tumor-bearing nude mice; format: in vivo, BALB/c-nu nude mice
Procedure: as §4, §1

SMILES: CC[C@@]1(O)C[C@H](O[C@H]2C[C@H](N(C)C)[C@H](O[C@H]3C[C@H](O)[C@H](O[C@H]4CCC(=O)[C@H](C)O4)[C@H](C)O3)[C@H](C)O2)c2c(cc3c(c2O)C(=O)c2c(O)cccc2C3=O)[C@H]1C(=O)OC [Acla A, aclarubicin A]
- survival rate increased, compared with mice without antibiotics injection [1]: 150%
- prolonging the lifetime of the mice [2]: 143%
- body weight, Final ([3]; Acla A 1 mg/kg/time intragastric, 2 times a day, 14 days, Day 20, Mean ± SD, n=3): 18.5 ± 1.10 g
- body weight, Initial ([3]; Acla A 1 mg/kg/time intragastric, 2 times a day, 14 days, Mean ± SD, n=3): 21.0 ± 0.23 g
- dynamic variation of the body weight (in words) ([3]; Acla A 1 mg/kg/time, during administration, recovered gradually after termination): partial reduction in the body weight
- complete remission rate (CR) [4]: up to 70%
- half-life t1/2 ([5]; intravenous injection): 16 to 21 h
- bioavailability ([5]; oral administration): 35%
- biological half-life t1/2 ([5]; oral administration): 36.5 h
- viability at 0.035 µg/mL ([6]; RPMI-8226, 72 h, read-out: CV (cell viability)): 42.1%
- IC50 ([6]; RPMI-8226, 72 h): 0.035 µg/mL
- viability at 0.03 µg/mL ([7]; read-out: CV (cell viability)): 42.6%
- IC50 [7]: 0.03 µg/mL
- cloning formation inhibited [8]: 65.4%
- inhibitory effect on lung cancer transplanted tumor (in words) ([9]; A549, Acla A 1 mg/kg/time): did not exhibit good inhibitory effect
- Mass of tumor ([9]; A549, Acla A 1 mg/kg/time intragastric, 2 times a day, 14 days, Day 20, Mean ± SD): 0.50 ± 0.19 g
- tumor inhibition rate ([9]; A549, Acla A 1 mg/kg/time intragastric, 2 times a day, 14 days, Day 20, control = 0): −51.52%

SMILES: COc1ccc2cc1Oc1ccc(cc1)C[C@H]1c3cc(c(OC)cc3CCN1C)Oc1c(OC)c(OC)cc3c1[C@H](C2)N(C)CC3 [TTD, tetrandrine]
- Mass of tumor ([10]; Mean ± SD): 0.23 ± 0.35 g
- tumor inhibition rate [10]: up to 38%
- tumor inhibition rate ([10]; listed as TTD50): 38.02%
- Mass of tumor ([11]; Mean ± SD): 0.53 ± 0.32 g
- tumor inhibition rate ([11]; control = 0): −33.36%
- body weight, Final ([12]; TTD 50 mg/kg/time intragastric, 3 times a day, 10 days, Day 24, Mean ± SD, n=3): 20.6 ± 1.74 g
- body weight, Initial ([12]; TTD 50 mg/kg/time intragastric, 3 times a day, 10 days, Mean ± SD, n=3): 21.1 ± 0.25 g
- dynamic variation of the body weight (in words) ([12]; TTD 50 mg/kg/time, during administration, recovered gradually after termination): partial reduction in the body weight
- IC50 ([6]; RPMI 8226, single compound, 72 h, MTT): 0.3 µg/mL
- viability at 1 µg/mL ([7]; TTD 1 μg/mL, MTT, control = 100%, read-out: CV (cell viability)): 46.9%
- IC50 ([7]; single compound, MTT): 1 µg/mL
